Source: US10463644B2, “Uses of sesquiterpene lactone compounds and their derivatives in drugs preparation” (ACCENDATECH, priority 2013, dated 2019)
Read-outs that look alike come from different tables or passages of the source.

Experiments:
normal cells = assay: Survival rate of normal cells after test compound is added (flow cytometry, Annexin V-FITC/PI); format: cell-based; conditions: 18 h
Method in brief: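 Ficoll-isolated mononuclear cells from patient specimens (e.g. AML) in serum-free IMDM at 1×10^6/mL were exposed to compound for 18 hours. Cells were stained for stem-cell markers (CD34+CD38+ for AML) plus Annexin V-FITC/PI, and apoptosis was read by flow cytometry within one hour.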

[1] = tested on: PGE2 secreted by synoviocyte; assay: Content of PGE2 in culture supernatant of synoviocyte of RA model rats given test compound; format: in vivo; conditions: rat RA model, dose 30 mg/kg.2d; normal control 8.34 ± 1.29, NaCl 32.44 ± 10.32
Method in brief: (§1)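 Read-out: TNF-α, PGE2 and IL-1β levels in supernatant from cultured synoviocytes. Cells came from RA model rats treated with compound at 30 mg/kg.2d, and from NaCl-treated and normal control rats.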

[2] = tested on: TNF-α secreted by synoviocyte; assay: Content of TNF-α in culture supernatant of synoviocyte of RA model rats given test compound; format: in vivo; conditions: rat RA model, dose 30 mg/kg.2d; normal control 0.38 ± 0.027, NaCl 0.74 ± 0.098
Method in brief: as §1

[3] = tested on: IL-1β secreted by synoviocyte; assay: Content of IL-1β in culture supernatant of synoviocyte of RA model rats given test compound; format: in vivo; conditions: rat RA model, dose 30 mg/kg.2d; normal control 0.16 ± 0.034, NaCl 0.49 ± 0.136
Method in brief: as §1

cancer stem cells = assay: Survival rate of cancer stem cells after test compound is added (flow cytometry, Annexin V-FITC/PI, clinical specimen); format: cell-based, patient; conditions: Homo sapiens, 18 h
Method in brief: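 Survival was determined in clinical specimens after an 18 h compound treatment, using Annexin V-FITC/PI apoptosis staining and flow cytometry.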

[4] = read-out: Survival rate (%) All cells (Stem cells and ordinary cells)
[5] = read-out: Survival rate (%) Stem cells
[6] = Head and neck squamous cell carcinomas

Compound `C=C1CC[C@H]2C(=C)CC[C@H]3C(=C)C(=O)O[C@@H]3[C@@H]12` [Compound 25] has a viability at 10 µM (normal cells; [4]) of 93%, a viability at 10 µM (normal cells; [5]) of 89% and a viability at 20 µM (normal cells; [4]) of 91%. For the same compound, the viability at 20 µM (normal cells; [5]) was 88%, the “Content of PGE2 in culture supernatant of synoviocyte (x ± s)” value (from here on “Content of PGE2”) [1] was 26.48 ± 2.57 ng/mL and the “Content of TNF-α in culture supernatant of synoviocyte (x ± s)” value (“Content of TNF-α” below) [2] was 0.58 ± 0.056 ng/mL. The “Content of IL-1β in culture supernatant of synoviocyte (x ± s)” value (“Content of IL-1β” below) [3] was 0.39 ± 0.067 ng/mL, the viability at 10 µM (cancer stem cells; AML) was 35% and the viability at 20 µM (cancer stem cells; AML) was 26%. For the same compound, the viability at 10 µM (cancer stem cells; Brain glioma) was 62%, the viability at 20 µM (cancer stem cells; Brain glioma) was 47% and the viability at 10 µM (cancer stem cells; Brain tumor) was 72%. For the same compound, the viability at 20 µM (cancer stem cells; Brain tumor) was 66%, the viability at 10 µM (cancer stem cells; Breast cancer) was 66% and the viability at 20 µM (cancer stem cells; Breast cancer) was 52%. It also gave a viability at 10 µM (cancer stem cells; CLL) of 46%, a viability at 20 µM (cancer stem cells; CLL) of 34% and a viability at 10 µM (cancer stem cells; CML) of 57%. It also gave a viability at 20 µM (cancer stem cells; CML) of 36%, a viability at 10 µM (cancer stem cells; Children hepatoblastoma) of 44% and a viability at 20 µM (cancer stem cells; Children hepatoblastoma) of 39%. The viability at 10 µM (cancer stem cells; Colon adenocarcinoma) was 42%, the viability at 20 µM (cancer stem cells; Colon adenocarcinoma) was 35% and the viability at 10 µM (cancer stem cells; Colorectal cancer) was 62%. The viability at 20 µM (cancer stem cells; Colorectal cancer) was 55%, the viability at 10 µM (cancer stem cells; Gastric cancer) was 43% and the viability at 20 µM (cancer stem cells; Gastric cancer) was 37%. The viability at 10 µM (cancer stem cells; Gastrointestinal tumor) was 54%, the viability at 20 µM (cancer stem cells; Gastrointestinal tumor) was 44% and the viability at 10 µM (cancer stem cells; Glioma) was 71%. For the same compound, the viability at 20 µM (cancer stem cells; Glioma) was 65%, the viability at 10 µM (cancer stem cells; [6]) was 56% and the viability at 20 µM (cancer stem cells; [6]) was 47%. For the same compound, the viability at 10 µM (cancer stem cells; Laryngeal cancer) was 64%, the viability at 20 µM (cancer stem cells; Laryngeal cancer) was 53% and the viability at 10 µM (cancer stem cells; Liver cancer) was 52%. The viability at 20 µM (cancer stem cells; Liver cancer) was 46%, the viability at 10 µM (cancer stem cells; Lung adenocarcinoma) was 46% and the viability at 20 µM (cancer stem cells; Lung adenocarcinoma) was 34%. It also gave a viability at 10 µM (cancer stem cells; Lung cancer) of 42%, a viability at 20 µM (cancer stem cells; Lung cancer) of 29% and a viability at 10 µM (cancer stem cells; Malignant melanoma) of 62%. The viability at 20 µM (cancer stem cells; Malignant melanoma) was 54%, the viability at 10 µM (cancer stem cells; Nasopharynx cancer) was 45% and the viability at 20 µM (cancer stem cells; Nasopharynx cancer) was 37%. It also gave a viability at 10 µM (cancer stem cells; Ovarian cancer) of 64%, a viability at 20 µM (cancer stem cells; Ovarian cancer) of 55% and a viability at 10 µM (cancer stem cells; Pancreatic cancer) of 54%. The viability at 20 µM (cancer stem cells; Pancreatic cancer) was 36%, the viability at 10 µM (cancer stem cells; Prostate cancer) was 44% and the viability at 20 µM (cancer stem cells; Prostate cancer) was 31%. It also gave a viability at 10 µM (cancer stem cells; Retinoblastoma) of 55%, a viability at 20 µM (cancer stem cells; Retinoblastoma) of 34% and a viability at 10 µM (cancer stem cells; Skin cancer) of 55%. It also gave a viability at 20 µM (cancer stem cells; Skin cancer) of 43%.
`C=C1C(=O)O[C@@H]2[C@@H]3[C@@H](CC[C@@]3(C)O)[C@](C)(O)CC[C@@H]12` [Compound 49] was tested, and the viability at 10 µM (normal cells; [4]) was 96%, the viability at 10 µM (normal cells; [5]) was 94% and the viability at 20 µM (normal cells; [4]) was 95%. For the same compound, the viability at 20 µM (normal cells; [5]) was 92%, the “Content of PGE2” value [1] was 24.25 ± 1.94 ng/mL and the “Content of TNF-α” value [2] was 0.65 ± 0.046 ng/mL. The “Content of IL-1β” value [3] was 0.39 ± 0.075 ng/mL, the viability at 10 µM (cancer stem cells; AML) was 85% and the viability at 20 µM (cancer stem cells; AML) was 77%. It also gave a viability at 10 µM (cancer stem cells; Brain glioma) of 83%, a viability at 20 µM (cancer stem cells; Brain glioma) of 79% and a viability at 10 µM (cancer stem cells; Brain tumor) of 83%. For the same compound, the viability at 20 µM (cancer stem cells; Brain tumor) was 79%, the viability at 10 µM (cancer stem cells; Breast cancer) was 82% and the viability at 20 µM (cancer stem cells; Breast cancer) was 79%. It also gave a viability at 10 µM (cancer stem cells; CLL) of 82%, a viability at 20 µM (cancer stem cells; CLL) of 74% and a viability at 10 µM (cancer stem cells; CML) of 87%. It also gave a viability at 20 µM (cancer stem cells; CML) of 76%, a viability at 10 µM (cancer stem cells; Children hepatoblastoma) of 86% and a viability at 20 µM (cancer stem cells; Children hepatoblastoma) of 78%. For the same compound, the viability at 10 µM (cancer stem cells; Colon adenocarcinoma) was 85%, the viability at 20 µM (cancer stem cells; Colon adenocarcinoma) was 79% and the viability at 10 µM (cancer stem cells; Colorectal cancer) was 82%. For the same compound, the viability at 20 µM (cancer stem cells; Colorectal cancer) was 74%, the viability at 10 µM (cancer stem cells; Gastric cancer) was 85% and the viability at 20 µM (cancer stem cells; Gastric cancer) was 77%. It also gave a viability at 10 µM (cancer stem cells; Gastrointestinal tumor) of 85%, a viability at 20 µM (cancer stem cells; Gastrointestinal tumor) of 77% and a viability at 10 µM (cancer stem cells; Glioma) of 82%. The viability at 20 µM (cancer stem cells; Glioma) was 76%, the viability at 10 µM (cancer stem cells; [6]) was 82% and the viability at 20 µM (cancer stem cells; [6]) was 73%. The viability at 10 µM (cancer stem cells; Laryngeal cancer) was 84%, the viability at 20 µM (cancer stem cells; Laryngeal cancer) was 78% and the viability at 10 µM (cancer stem cells; Liver cancer) was 85%. It also gave a viability at 20 µM (cancer stem cells; Liver cancer) of 79%, a viability at 10 µM (cancer stem cells; Lung adenocarcinoma) of 84% and a viability at 20 µM (cancer stem cells; Lung adenocarcinoma) of 78%. The viability at 10 µM (cancer stem cells; Lung cancer) was 79%, the viability at 20 µM (cancer stem cells; Lung cancer) was 73% and the viability at 10 µM (cancer stem cells; Malignant melanoma) was 82%. For the same compound, the viability at 20 µM (cancer stem cells; Malignant melanoma) was 79%, the viability at 10 µM (cancer stem cells; Nasopharynx cancer) was 84% and the viability at 20 µM (cancer stem cells; Nasopharynx cancer) was 77%. It also gave a viability at 10 µM (cancer stem cells; Ovarian cancer) of 86%, a viability at 20 µM (cancer stem cells; Ovarian cancer) of 76% and a viability at 10 µM (cancer stem cells; Pancreatic cancer) of 81%. The viability at 20 µM (cancer stem cells; Pancreatic cancer) was 75%, the viability at 10 µM (cancer stem cells; Prostate cancer) was 85% and the viability at 20 µM (cancer stem cells; Prostate cancer) was 77%. For the same compound, the viability at 10 µM (cancer stem cells; Retinoblastoma) was 85%, the viability at 20 µM (cancer stem cells; Retinoblastoma) was 77% and the viability at 10 µM (cancer stem cells; Skin cancer) was 85%. It also gave a viability at 20 µM (cancer stem cells; Skin cancer) of 79%.
Work on `CN(C)C[C@@H]1C(=O)O[C@H]2[C@H]1CCC1(CC1)[C@@H]1CCC3(CC3)[C@H]21` [Compound 27] yielded a viability at 10 µM (normal cells; [4]) of 91%, a viability at 10 µM (normal cells; [5]) of 88% and a viability at 20 µM (normal cells; [4]) of 89%. For the same compound, the viability at 20 µM (normal cells; [5]) was 81%, the “Content of PGE2” value [1] was 24.75 ± 2.66 ng/mL and the “Content of TNF-α” value [2] was 0.54 ± 0.066 ng/mL. For the same compound, the “Content of IL-1β” value [3] was 0.41 ± 0.047 ng/mL, the viability at 10 µM (cancer stem cells; AML) was 87% and the viability at 20 µM (cancer stem cells; AML) was 77%. For the same compound, the viability at 10 µM (cancer stem cells; Brain glioma) was 84%, the viability at 20 µM (cancer stem cells; Brain glioma) was 78% and the viability at 10 µM (cancer stem cells; Brain tumor) was 87%. For the same compound, the viability at 20 µM (cancer stem cells; Brain tumor) was 76%, the viability at 10 µM (cancer stem cells; Breast cancer) was 84% and the viability at 20 µM (cancer stem cells; Breast cancer) was 76%. The viability at 10 µM (cancer stem cells; CLL) was 87%, the viability at 20 µM (cancer stem cells; CLL) was 82% and the viability at 10 µM (cancer stem cells; CML) was 87%. For the same compound, the viability at 20 µM (cancer stem cells; CML) was 76%, the viability at 10 µM (cancer stem cells; Children hepatoblastoma) was 82% and the viability at 20 µM (cancer stem cells; Children hepatoblastoma) was 79%. For the same compound, the viability at 10 µM (cancer stem cells; Colon adenocarcinoma) was 82%, the viability at 20 µM (cancer stem cells; Colon adenocarcinoma) was 78% and the viability at 10 µM (cancer stem cells; Colorectal cancer) was 85%. The viability at 20 µM (cancer stem cells; Colorectal cancer) was 79%, the viability at 10 µM (cancer stem cells; Gastric cancer) was 81% and the viability at 20 µM (cancer stem cells; Gastric cancer) was 75%. The viability at 10 µM (cancer stem cells; Gastrointestinal tumor) was 86%, the viability at 20 µM (cancer stem cells; Gastrointestinal tumor) was 77% and the viability at 10 µM (cancer stem cells; Glioma) was 80%. For the same compound, the viability at 20 µM (cancer stem cells; Glioma) was 75%, the viability at 10 µM (cancer stem cells; [6]) was 81% and the viability at 20 µM (cancer stem cells; [6]) was 75%. It also gave a viability at 10 µM (cancer stem cells; Laryngeal cancer) of 85%, a viability at 20 µM (cancer stem cells; Laryngeal cancer) of 77% and a viability at 10 µM (cancer stem cells; Liver cancer) of 86%. The viability at 20 µM (cancer stem cells; Liver cancer) was 77%, the viability at 10 µM (cancer stem cells; Lung adenocarcinoma) was 82% and the viability at 20 µM (cancer stem cells; Lung adenocarcinoma) was 76%. It also gave a viability at 10 µM (cancer stem cells; Lung cancer) of 79%, a viability at 20 µM (cancer stem cells; Lung cancer) of 72% and a viability at 10 µM (cancer stem cells; Malignant melanoma) of 82%. It also gave a viability at 20 µM (cancer stem cells; Malignant melanoma) of 74%, a viability at 10 µM (cancer stem cells; Nasopharynx cancer) of 82% and a viability at 20 µM (cancer stem cells; Nasopharynx cancer) of 74%. The viability at 10 µM (cancer stem cells; Ovarian cancer) was 83%, the viability at 20 µM (cancer stem cells; Ovarian cancer) was 77% and the viability at 10 µM (cancer stem cells; Pancreatic cancer) was 86%. The viability at 20 µM (cancer stem cells; Pancreatic cancer) was 78%, the viability at 10 µM (cancer stem cells; Prostate cancer) was 84% and the viability at 20 µM (cancer stem cells; Prostate cancer) was 78%. The viability at 10 µM (cancer stem cells; Retinoblastoma) was 85%, the viability at 20 µM (cancer stem cells; Retinoblastoma) was 80% and the viability at 10 µM (cancer stem cells; Skin cancer) was 85%. The viability at 20 µM (cancer stem cells; Skin cancer) was 74%.
